Source: PubChem BioAssay (NCI)
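96-well plates; 48 h exposure; 5 concentrations. Endpoints by linear interpolation between flanking doses. Not reached: highest tested concentration assigned. TGI marks complete inhibition of growth.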

Experiments:
Experiment in all cases: NCI tumour cell line growth inhibition, 48 h
A498 renal = tested on: A498 renal
A549 NSCLC = tested on: A549 NSCLC
CCRF-CEM leukemia = tested on: CCRF-CEM leukemia
COLO 205 colon = tested on: COLO 205 colon
DLD-1 colon = tested on: DLD-1 colon
DMS 114 small cell lung = tested on: DMS 114 small cell lung
DMS 273 small cell lung = tested on: DMS 273 small cell lung
EKVX NSCLC = tested on: EKVX NSCLC
HCC-2998 colon = tested on: HCC-2998 colon
HCT-116 colon = tested on: HCT-116 colon
HCT-15 colon = tested on: HCT-15 colon
HL-60(TB) leukemia = tested on: HL-60(TB) leukemia
HOP-18 NSCLC = tested on: HOP-18 NSCLC
HOP-62 NSCLC = tested on: HOP-62 NSCLC
HT29 colon = tested on: HT29 colon
IGROV1 ovarian = tested on: IGROV1 ovarian
K-562 leukemia = tested on: K-562 leukemia
KM12 colon = tested on: KM12 colon
KM20L2 colon = tested on: KM20L2 colon
LOX IMVI melanoma = tested on: LOX IMVI melanoma
M19-MEL melanoma = tested on: M19-MEL melanoma
MALME-3M melanoma = tested on: MALME-3M melanoma
MCF7 breast = tested on: MCF7 breast
MOLT-4 leukemia = tested on: MOLT-4 leukemia
NCI-H226 lung = tested on: NCI-H226 lung
NCI-H23 lung = tested on: NCI-H23 lung
NCI-H460 lung = tested on: NCI-H460 lung
NCI-H522 lung = tested on: NCI-H522 lung
NCI/ADR-RES ovarian = tested on: NCI/ADR-RES ovarian
OVCAR-3 ovarian = tested on: OVCAR-3 ovarian
OVCAR-4 ovarian = tested on: OVCAR-4 ovarian
OVCAR-5 ovarian = tested on: OVCAR-5 ovarian
OVCAR-8 ovarian = tested on: OVCAR-8 ovarian
P388 leukemia = tested on: P388 leukemia
P388/ADR leukemia = tested on: P388/ADR leukemia
RPMI-8226 leukemia = tested on: RPMI-8226 leukemia
RXF 393 renal = tested on: RXF 393 renal
SF-268 CNS = tested on: SF-268 CNS
SF-295 CNS = tested on: SF-295 CNS
SF-539 CNS = tested on: SF-539 CNS
SK-MEL-2 melanoma = tested on: SK-MEL-2 melanoma
SK-MEL-28 melanoma = tested on: SK-MEL-28 melanoma
SK-MEL-5 melanoma = tested on: SK-MEL-5 melanoma
SK-OV-3 ovarian = tested on: SK-OV-3 ovarian
SN12C renal = tested on: SN12C renal
SN12K1 renal = tested on: SN12K1 renal
SNB-19 CNS = tested on: SNB-19 CNS
SNB-75 CNS = tested on: SNB-75 CNS
SNB-78 CNS = tested on: SNB-78 CNS
SW-620 colon = tested on: SW-620 colon
U251 CNS = tested on: U251 CNS
UACC-257 melanoma = tested on: UACC-257 melanoma
UACC-62 melanoma = tested on: UACC-62 melanoma
UO-31 renal = tested on: UO-31 renal
XF 498 CNS = tested on: XF 498 CNS

Measured: TGI

CCC1CN2CCC1CC2 (stereo not given)
> 100 µM: all assays above
